Experimental data published in the NIST ThermoML archive (doi:10.1016/j.fluid.2005.10.023).

Assay: xn = mol fraction of the nth substance listed
Details: Gas, Other PVT measurement

CCCCCl [1-chlorobutane] + O=C=O
mass density [kg/m3]
Details | x1 = 0.0257 | x1 = 0.03 | x1 = 0.0363 | x1 = 0.04 | x1 = 0.0497
323.15 K | 347 | 386 | 442 | 468 | –
328.15 K | 300 | 343 | 390 | 407 | 467
333.15 K | – | 286 | 345 | 380 | 419

Clc1ccccc1 [chlorobenzene] + O=C=O
mass density [kg/m3]
Details | x1 = 0.024 | x1 = 0.0293 | x1 = 0.0352 | x1 = 0.04 | x1 = 0.0482 | x1 = 0.204
323.15 K | 471 | 507 | – | – | – | 437
328.15 K | 441 | 481 | 516 | 534 | – | 406
333.15 K | 417 | 458 | 493 | 516 | 556 | 386

CCCCCC [hexane] + O=C=O
mass density [kg/m3]
Details | x1 = 0.0373 | x1 = 0.0471 | x1 = 0.052 | x1 = 0.0618
323.15 K | 355 | 451 | 477 | –
328.15 K | 294 | 396 | 423 | 436
333.15 K | 249 | 343 | 378 | 392

C=Cc1ccccc1 [styrene] + O=C=O
mass density [kg/m3]
Details | x1 = 0.0182 | x1 = 0.0256 | x1 = 0.03 | x1 = 0.0343 | x1 = 0.0393 | x1 = 0.0476
323.15 K | 479 | 494 | 521 | – | – | –
328.15 K | 450 | 471 | 499 | 529 | 547 | 580
333.15 K | 430 | 453 | 479 | 507 | 527 | 560
